Experimental findings from patent publication US20240158418A1 (C4 Therapeutics, Inc., priority 2021, published 2024) are described below.

The target of one experiment is T1, EGFR L858R-T790M (Homo sapiens, UniProt P00533, L858R/T790M).
T1 construct: NCI-H1975 (harboring EGFR heterozygous L858R-T790M mutations); host or cells: NCI-H1975
T1 sequence (P00533 25-1210 T790M/L858R): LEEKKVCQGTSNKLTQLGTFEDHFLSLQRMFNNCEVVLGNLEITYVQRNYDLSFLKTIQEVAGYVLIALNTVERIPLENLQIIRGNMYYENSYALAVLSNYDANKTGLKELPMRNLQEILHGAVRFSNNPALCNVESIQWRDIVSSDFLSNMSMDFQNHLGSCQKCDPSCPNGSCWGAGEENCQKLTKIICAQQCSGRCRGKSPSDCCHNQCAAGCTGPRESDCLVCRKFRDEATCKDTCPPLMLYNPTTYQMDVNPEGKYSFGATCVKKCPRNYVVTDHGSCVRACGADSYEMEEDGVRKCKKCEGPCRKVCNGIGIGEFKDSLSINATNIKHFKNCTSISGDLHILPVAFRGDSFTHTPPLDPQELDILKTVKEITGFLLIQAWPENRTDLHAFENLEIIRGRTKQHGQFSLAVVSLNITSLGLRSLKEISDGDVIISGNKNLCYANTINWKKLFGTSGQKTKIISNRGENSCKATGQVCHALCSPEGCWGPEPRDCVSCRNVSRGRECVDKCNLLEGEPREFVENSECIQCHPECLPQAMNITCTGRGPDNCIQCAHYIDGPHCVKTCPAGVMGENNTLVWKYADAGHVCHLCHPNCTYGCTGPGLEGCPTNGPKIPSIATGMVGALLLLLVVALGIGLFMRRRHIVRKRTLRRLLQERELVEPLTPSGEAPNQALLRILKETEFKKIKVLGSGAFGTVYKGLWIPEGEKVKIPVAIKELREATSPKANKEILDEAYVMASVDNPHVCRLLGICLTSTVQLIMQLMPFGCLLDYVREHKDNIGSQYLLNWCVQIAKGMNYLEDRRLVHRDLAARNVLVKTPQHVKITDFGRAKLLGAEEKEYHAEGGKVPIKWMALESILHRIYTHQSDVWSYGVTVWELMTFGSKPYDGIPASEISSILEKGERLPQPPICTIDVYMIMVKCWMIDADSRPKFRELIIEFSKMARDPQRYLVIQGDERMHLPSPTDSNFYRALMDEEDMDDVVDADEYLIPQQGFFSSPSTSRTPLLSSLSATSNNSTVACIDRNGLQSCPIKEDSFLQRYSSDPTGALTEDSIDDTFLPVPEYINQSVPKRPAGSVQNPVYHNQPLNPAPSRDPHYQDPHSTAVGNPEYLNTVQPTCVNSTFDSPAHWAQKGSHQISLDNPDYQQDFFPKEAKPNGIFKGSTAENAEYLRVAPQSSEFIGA
The experiment in a line: EGFR degradation, Total EGFR (L858R-specific) HTRF, NCI-H1975. Format: cell-based. To be noted: Table 9A; NCI-H1975 cells, 6 hours, Total EGFR HTRF; read-out: H1975 EGFR DC50. The text has this: NCI-H1975 (harboring EGFR heterozygous L858R-T790M mutations) and NCI-H3255 (harboring EGFR heterozygous L858R mutation) were purchased from ATCC and NCI, respectively. NCI-H1975+CS (harboring EGFR heterozygous L858R-T790M-C797S mutations) was generated using CRISPR technology to introduce the additional C797S mutation by Horizon Discovery. A431 (harboring EGFR wildtype) was purchased from ATCC. RPMI 1640 no-phenol red medium and fetal bovine serum (FBS) were purchased from Gibco (Grand Island, NY, USA). Cell culture flasks and 384-well microplates were acquired from VWR (Radnor, PA, USA). Phosphorylated (pY1068) EGFR and Total EGFR (using L858R-specific detection antibody and pan-EGFR antibody for EGFR mutant cell lines and EGFR wild-type cell lines, respectively) HTRF assay kits were purchased from Cisbio (Bedford, MA, USA).
Degradation of EGFR protein containing L858R mutation or wild-type was determined based on quantification of FRET signal using a Total EGFR (L858R-specific or pan-EGFR detecting) HTRF assay kit. Phospho-EGFR (pEGFR) inhibition was determined based on quantification of FRET signal using a pY1068 EGFR HTRF assay kit. In separate assay plates, test compounds were added to the 384-well plate from a top concentration of 10 μM with 11 points, half log titration in duplicates. For each assay, 12.5 uL of cells suspended in assay media (RPMI 1640 no-phenol red medium+10% FBS) at cell densities indicated for each cell line in Table 8 below were dispensed using a multi-channel pipette to 384-well low volume white HTRF microplates containing a duplicate concentration range of test compounds and DMSO controls. The plates were kept at 37° C. with 5% CO2 for 6 hours and then incubated with either phospho EGFR or Total EGFR HTRF detection antibodies according to the cell line and EGFR mutant being assayed. Cells treated in the absence of the test compound were the negative control. Positive control was set by wells containing all reagents but no cells. FRET signal was acquired on EnVision™ Multilabel Reader (PerkinElmer, Santa Clara, CA, USA). Compound concentration that achieves 50% degradation and inhibition was reported as DC50 and IC50, respectively.
The term DC50 denotes the midpoint of the concentration-degradation curve. For `O=C1CCC(Nc2ccc(C3CCN(CC(=O)N4CCN(c5ccc(-c6cc(F)c7cn(C(C(=O)Nc8nccs8)c8ncn9c8CCC9)nc7c6)cn5)CC4)CC3)cc2)C(=O)N1` (centres unmarked) [Compound 65, 2-(6,7-dihydro-5H-pyrrolo[1,2-c]imidazol-1-yl)-2-[6-[6-[4-[2-[4-[4-[(2,6-dioxo-3-piperidyl)amino]phenyl]-1-piperidyl]acetyl]piperazin-1-yl]-3-pyridyl]-4-fluoro-indazol-2-yl]-N-thiazol-2-yl-acetamide], the DC50 was below 50 nM.

For `O=C1CCC(N2Cc3c(OC4CCN(C(=O)CCCN5CCN(c6ccc(-c7ccc8cn(C(C(=O)Nc9nccs9)c9ncn%10c9CCC%10)nc8c7F)cn6)CC5)CC4)cccc3C2=O)C(=O)N1` (racemic) [Compound 62, (2RS)-2-(6,7-Dihydro-5H-pyrrolo[1,2-c]imidazol-1-yl)-2-[7-fluoro-6-[6-[4-[4-oxo-4-[4-[1-oxo-2-[(3RS)-2,6-dioxo-3-piperidyl]isoindolin-4-yl]oxy-1-piperidyl]butyl]piperazin-1-yl]-3-pyridyl]indazol-2-yl]-N-thiazol-2-yl-acetamide], the DC50 is below 50 nM.

Still in this experiment, the particulars now being: Table 9B; NCI-H1975 cells, 6 hours, Total EGFR HTRF; read-out: H1975 EGFR DC50.
Regarding `O=C1CCC(Nc2ccc(N3CCCC(O)(CC(=O)N4CC5(C4)CN(c4ccc(-c6cc(F)c7c(c6)C(=O)N(C(C(=O)Nc6nccs6)c6ncn8c6CCC8)C7)cc4)C5)CC3)c(F)c2)C(=O)N1` (single isomer, unassigned; isomer a2) [Compound 165, 2-(6,7-dihydro-5H-pyrrolo[1,2-c]imidazol-1-yl)-2-[6-[4-[2-[2-[1-[4-[[2,6-dioxo-3-piperidyl]amino]-2-fluoro-phenyl]-4-hydroxy-azepan-4-yl]acetyl]-2,6-diazaspiro[3.3]heptan-6-yl]phenyl]-4-fluoro-1-oxo-isoindolin-2-yl]-N-thiazol-2-yl-acetamide, isomer A2], the DC50 is below 50 nM.

In the case of `O=C1CCC(Nc2cc(F)c(N3CCC(O)(CC(=O)N4CC5(CCN(c6ccc(-c7cc(F)c8c(c7)C(=O)N(C(C(=O)Nc7nccs7)c7ncn9c7CCC9)C8)cc6)CC5)C4)CC3)c(F)c2)C(=O)N1` (single isomer, unassigned; isomer 1) [Compound 134, 2-(6,7-dihydro-5H-pyrrolo[1,2-c]imidazol-1-yl)-2-[6-[4-[2-[2-[1-[4-[[2,6-dioxo-3-piperidyl]amino]-2,6-difluoro-phenyl]-4-hydroxy-4-piperidyl]acetyl]-2,7-diazaspiro[3.5]nonan-7-yl]phenyl]-4-fluoro-1-oxo-isoindolin-2-yl]-N-thiazol-2-yl-acetamide, isomer 1], the DC50 is below 50 nM.

As to `O=C1CC[C@H](Nc2ccc(N3CCC(O)(CC(=O)N4CC5(C4)CN(c4ccc(-c6cc(F)c7cn(C(C(=O)Nc8nccs8)c8ncn9c8CCC9)nc7c6)cn4)C5)CC3)c(F)c2)C(=O)N1` (stereo partly drawn) [Compound 75, 2-(6,7-dihydro-5H-pyrrolo[1,2-c]imidazol-1-yl)-2-[6-[6-[2-[2-[1-[4-[[(3S)-2,6-dioxo-3-piperidyl]amino]-2-fluoro-phenyl]-4-hydroxy-4-piperidyl]acetyl]-2,6-diazaspiro[3.3]heptan-6-yl]-3-pyridyl]-4-fluoro-indazol-2-yl]-N-thiazol-2-yl-acetamide], the DC50 is below 50 nM.

`N#Cc1cc(N2CCC(=O)NC2=O)ccc1N1CCC(O)(CC(=O)N2CC3(C2)CN(c2ccc(-c4cc(F)c5c(c4)C(=O)N(C(C(=O)Nc4nccs4)c4ncn6c4CCC6)C5)cc2)C3)CC1` (centres unmarked) [Compound 171, 2-[6-[4-[2-[2-[1-[2-cyano-4-(2,4-dioxohexahydropyrimidin-1-yl)phenyl]-4-hydroxy-4-piperidyl]acetyl]-2,6-diazaspiro[3.3]heptan-6-yl]phenyl]-4-fluoro-1-oxo-isoindolin-2-yl]-2-(6,7-dihydro-5H-pyrrolo[1,2-c]imidazol-1-yl)-N-thiazol-2-yl-acetamide]: the DC50 was above 150 nM.

In the case of `O=C1CC[C@H](Nc2ccc(N3CCC(O)(CC(=O)N4CC5(C4)CN(c4ccc(-c6ccc7cn(C(C(=O)Nc8nccs8)c8ncn9c8CCC9)nc7c6F)cc4)C5)CC3)c(F)c2)C(=O)N1` (stereo partly drawn) [Compound 78, 2-(6,7-dihydro-5H-pyrrolo[1,2-c]imidazol-1-yl)-2-(6-(4-(6-(2-(1-(4-(((S)-2,6-dioxopiperidin-3-yl)amino)-2-fluorophenyl)-4-hydroxypiperidin-4-yl)acetyl)-2,6-diazaspiro[3.3]heptan-2-yl)phenyl)-7-fluoro-2H-indazol-2-yl)-N-(thiazol-2-yl)acetamide], the DC50 is below 50 nM.

As for `Cn1nc(N2CCC(=O)NC2=O)c2cc(F)c(N3CCN(CC(=O)N4CC5(C4)CN(c4ccc(-c6cc(F)c7c(c6)C(=O)N(C(C(=O)Nc6nccs6)c6ncn8c6CCC8)C7)cc4)C5)CC3)cc21` (centres unmarked) [Compound 123, 2-(6,7-dihydro-5H-pyrrolo[1,2-c]imidazol-1-yl)-2-[6-[4-[2-[2-[4-[3-(2,4-dioxohexahydropyrimidin-1-yl)-5-fluoro-1-methyl-indazol-6-yl]piperazin-1-yl]acetyl]-2,6-diazaspiro[3.3]heptan-6-yl]phenyl]-4-fluoro-1-oxo-isoindolin-2-yl]-N-thiazol-2-yl-acetamide], the DC50 is below 50 nM.

In the case of `O=C1CCC(Nc2ccc(N3CCC(O)(CC(=O)N4CCC5(C4)CN(c4ccc(-c6cc(F)c7c(c6)C(=O)N(C(C(=O)Nc6nccs6)c6ncn8c6CCC8)C7)cc4)C5)CC3)c(F)c2)C(=O)N1` (centres unmarked) [Compound 115, 2-(6,7-dihydro-5H-pyrrolo[1,2-c]imidazol-1-yl)-2-[6-[4-[7-[2-[1-[4-[(2,6-dioxo-3-piperidyl)amino]-2-fluoro-phenyl]-4-hydroxy-4-piperidyl]acetyl]-2,7-diazaspiro[3.4]octan-2-yl]phenyl]-4-fluoro-1-oxo-isoindolin-2-yl]-N-thiazol-2-yl-acetamide], the half-maximal degradation concentration (DC50) was below 50 nM.

Consider `O=C1CC[C@H](Nc2ccc(N3CCC(O)(C(=O)N4CC5(C4)CN(c4ccc(-c6cc(F)c7c(c6)C(=O)N(C(C(=O)Nc6nccs6)c6ncn8c6CCC8)C7)cc4)C5)CC3)c(F)c2)C(=O)N1` (single isomer, unassigned; isomer 1) [Compound 146, 2-(6,7-dihydro-5H-pyrrolo[1,2-c]imidazol-1-yl)-2-[6-[4-[2-[1-[4-[[2,6-dioxo-3-piperidyl]amino]-2-fluoro-phenyl]-4-hydroxy-piperidine-4-carbonyl]-2,6-diazaspiro[3.3]heptan-6-yl]phenyl]-4-fluoro-1-oxo-isoindolin-2-yl]-N-thiazol-2-yl-acetamide, isomer 1], for which the DC50 is below 50 nM.

For `O=C1CCC(Nc2ccc(N3CCC(O)(CC(=O)N4CC5(CCN(c6ccc(-c7cc(F)c8c(c7)C(=O)N(C(C(=O)Nc7nccs7)c7ncn9c7CCC9)C8)cc6)CC5)C4)CC3)c(F)c2)C(=O)N1` (centres unmarked) [Compound 107, 2-(6,7-dihydro-5H-pyrrolo[1,2-c]imidazol-1-yl)-2-(6-(4-(2-(2-(1-(4-((2,6-dioxopiperidin-3-yl)amino)-2-fluorophenyl)-4-hydroxypiperidin-4-yl)acetyl)-2,7-diazaspiro[3.5]nonan-7-yl)phenyl)-4-fluoro-1-oxoisoindolin-2-yl)-N-(thiazol-2-yl)acetamide], the 50% degradation concentration (DC50) was below 50 nM.
